Laboratory results published in article PMC12424289, “Programmable Nanostructure Assembly of a Paclitaxel Derivative Enables Tunable Anticancer Therapy via Hydrogen Bond Engineering” (ACS Nano, 2025).

What was measured:
[1] = test system: human colon HCT116-Luc cells; assay: CCK8 antiproliferation assay, HCT116-Luc; type: cell-based; details: 48 h treatment
Protocol: (§1) The mouse breast cancer cell line 4T1 and the human ovarian cancer cell line SKOV3 were cultured in RPMI 1640 medium supplemented with 10% fetal bovine serum, 100 units·mL^–1 penicillin, and 100 μg·mL^–1 streptomycin. The human lung cancer cell line A549 and the luciferase-expressing human colorectal carcinoma cell line HCT116-Luc were cultured in high-glucose DMEM medium supplemented with 10% fetal bovine serum, 100 units·mL^–1 penicillin, and 100 μg·mL^–1 streptomycin. All cell lines were maintained at 37 °C in a Steri-Cycle 371 incubator (Thermo Scientific, USA) with a humidified atmosphere of 5% CO2. Only cells between passages 5 and 15 were used for cell-based experiments.
(§2) The antiproliferative activity of PTP was evaluated using the Cell Counting Kit-8 (CCK8) assay. PTX solution served as a positive control. Cell suspensions were prepared at a density of 3 × 10^4 cells·mL^–1 and seeded in 96-well plates at a volume of 100 μL per well. The plates were incubated for 24 h to allow cell attachment and growth. Subsequently, the culture media were replaced with fresh media containing varying concentrations of PTX or PTP solutions (100 μL per well), and the cells were incubated for an additional 48 h (n = 3). Control wells received fresh culture media alone (n = 3). […] Finally, the absorbance was measured at 450 nm using a microplate reader (Synergy H1, BioTek, USA). […]

[2] = test system: human ovarian SKOV3 cells; assay: CCK8 antiproliferation assay, SKOV3; type: cell-based; details: SK-OV-3, SKOV3, 48 h treatment
Protocol: as §1, §2

mouse breast 4T1 cells = assay: CCK8 antiproliferation assay, 4T1; type: cell-based; details: 4T1, 48 h treatment
Protocol: as §1, §2

human lung A549 cells = assay: CCK8 antiproliferation assay, A549; type: cell-based; details: A549, 48 h treatment
Protocol: as §1, §2

tubulin = assay: Isothermal titration calorimetry with tubulin; type: binding; details: tubulin 180 μM titrated into 25 μM compound
Protocol: ITC experiments were performed using a Nano-ITC (TA Instruments, USA) with all samples degassed for 8 min prior to measurement. Experiments were conducted under stirring at 350 rpm. To account for background signals, control experiments were conducted and subtracted from the test data. The resulting heat values were analyzed using an independent model to extract thermodynamic parameters. For tubulin binding studies, solutions were prepared in PEM buffer containing 5% (v/v) DMSO. In each experiment, 400 μL of the […] was loaded into the sample cell, and 400 μL of PEM buffer with 5% (v/v) DMSO was placed in the reference cell. Tubulin solution (180 μM) was titrated into the sample cell in 25 injections of 2 μL each at 4 °C. A control titration of tubulin into PEM buffer (5% DMSO) was performed to account for dilution effects. To assess interactions between PTP and excipients, PTP dispersions (25 μM) were loaded into the sample cell, and water was used in the reference cell. PEG400 solution (6.0 mg·mL^–1) was titrated into a 2.0 mg·mL^–1 PTP dispersion, and HA (2.7 mg·mL^–1) into a 1.0 mg·mL^–1 PTP dispersion. Both titrations were performed at 25 °C with 25 injections of 2 μL each. Control experiments were performed by titrating PEG400 or HA into water to correct for nonspecific heat effects.

Balb/c mice = assay: Maximum tolerated dose / survival in mice; type: in vivo, mouse; details: iv, PTX 33.0 mg·kg^–1, after 14 days
[3] = Pharmacokinetics after intraperitoneal injection; type: in vivo; details: male, Sprague-Dawley, rat, plasma; rats, single ip; PTP@HA 100.0 mg·kg^–1 PTP, PTX solution 12.0 mg·kg^–1
Protocol: For plasma samples, 50 μL of plasma was mixed with 100 μL of a docetaxel acetonitrile solution (15 ng·mL^–1) for protein precipitation. The mixture was vortexed and then centrifuged at 4 °C, 17 000 rpm for 30 min. For tissue samples, mice were euthanized at specified time points, and tissues were harvested and rinsed with saline. Two kidneys, the entire heart, spleen, lung, tumor, and 150–200 mg of liver were placed in grinding tubes. Saline was added at a ratio of 1:5 (m/v), and the tissues were ground using a freezing grinder (Jingxin, China) at 4 °C. Next, 100 μL of docetaxel acetonitrile solution (15 ng·mL^–1) was added to 50 μL of the tissue homogenate. After vortex mixing, the mixture was centrifuged at 4 °C, 17 000 rpm for 30 min. The supernatants for both plasma and tissue samples were analyzed by LC-MS as described below.
The concentrations of PTP and PTX in plasma and tissue samples were determined using liquid chromatography–mass spectrometry (LC-MS) with a G6470A system (Agilent, USA) equipped with a C18 column (2.1 × 100 mm, 2.7 μm, Agilent, USA). […]
The PTP@HA hydrogel, containing PTP at a concentration of 5.0 mg·mL^–1, was prepared by adding HA saline solution (20.0 mg·mL^–1) to solid PTP, followed by vortexed for 1 min. […] Plasma concentrations of both PTP and PTX were subsequently quantified using LC-MS (G6470A, Agilent, USA).

**Q.** Which results are given for `CC(=O)O[C@H]1C(=O)[C@@]2(C)[C@H]([C@H](OC(=O)c3ccccc3)[C@]3(O)C[C@H](OC(=O)[C@H](O)[C@@H](NC(=O)c4ccccc4)c4ccccc4)C(C)=C1C3(C)C)[C@]1(OC(C)=O)CO[C@@H]1C[C@@H]2O` [PTX, Paclitaxel]?
**A.** IC50 [1]: 0.0131 µM; IC50 [2]: 0.0374 µM; IC50 (mouse breast 4T1 cells): 0.0259 µM; IC50 (human lung A549 cells): 0.0113 µM; molar ratio of tubulin to compound (tubulin; ITC): 1.5; Gibbs free energy change (ΔG) (tubulin; 5% DMSO, 4 °C): −27.0 kJ·mol^–1; survival (Balb/c mice): 83.3%; MRT [3]: 4.4 h; half-life [3]: 3.2 h
